The values below come from patent publication US9592268B2, “Endothelium protective materials and methods of use” (CORNELL UNIVERSITY, priority 2011, dated 2017).

One experiment deals with T1, recombinant human apoM (Homo sapiens, UniProt O95445).
T1 construct: host or cells: E. coli
Conditions: recombinant human apoM expressed in E. coli; SEVVANA et al. 2009; read-out: IC50 for displacement of myristic acid from apoM; cited from earlier work.

In experiment [1] the target is T2, murine recombinant apoM (r-apoM) (Mus musculus, UniProt Q9Z1R3).
T2 construct: A truncated mouse r-apoM containing the lipocalin domain but lacking the hydrophobic signal peptide was produced in Escherichia coli; made in house; host or cells: Escherichia coli
T2 sequence (Q9Z1R3 22-190): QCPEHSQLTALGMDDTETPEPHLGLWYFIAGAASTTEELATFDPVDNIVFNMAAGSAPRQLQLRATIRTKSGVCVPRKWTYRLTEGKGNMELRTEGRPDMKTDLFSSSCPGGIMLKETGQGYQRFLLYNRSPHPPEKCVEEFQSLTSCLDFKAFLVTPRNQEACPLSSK
Nature of the experiment: intrinsic fluorescence quenching of r-apoM by S1P. It is filed as binding. The note with it: r-apoM 0.7 μM; S1P 0-3.2 μmol/L; excitation 295 nm, emission 345 nm. On the procedure:
FIG. 3. […] A truncated mouse r-apoM containing the lipocalin domain but lacking the hydrophobic signal peptide was produced in Escherichia coli. The r-apoM (0.7 μM) was incubated with increasing concentrations of S1P (final concentration: 0-3.2 μmol/L). The intrinsic fluorescence of apoM was measured with excitation at 295 nm and emission at 345 nm. The data are mean±SEM (n=3).
Intrinsic fluorescence quenching was studied after addition of S1P to 0.7 μM murine recombinant apoM (r-apoM) (SEVVANA et al., J. Mol. Biol, 393:920-936 (2009)). Because it is possible that murine r-apoM binds and contains myristic acid in a manner similar to that of its human counterpart (SEVVANA et al., J. Mol. Biol, 393:920-936 (2009)), the binding data are reported as IC50 values. This approach also allows S1P binding to murine r-apoM to be compared directly with the previous data on human apoM-S1P binding.

Experiment [2] concerns HUVEC. Nature of the experiment: HUVEC migration (chemotaxis chamber) assay. It is filed as cell-based, human. On the procedure:
FIG. 4. ApoM-bound S1P activates S1P1-mediated intracellular signaling pathways and affects migration of HUVEC. (A) Confocal microscopy of HEK293 cells stably expressing S1P1-GFP. Cells were serum starved, stimulated for 1 h with indicated ligands, fixed and imaged. ApoM^+HDL (equivalent to ˜100 nM S1P as determined by LC/MS/MS) or ApoM^−HDL was used at 100 μg/ml. Fatty acid free BSA and r-apoM were complexed with S1P and used at the final concentration of 100 nM (equimolar for both protein and lipid). Scale bar, 20 μm. […] Activation of p44/42, and Akt was examined by western blot analysis using phospho-specific antibodies. (C) HUVEC were serum starved and pre-treated with 1 μM VPC44116 for 30 min where indicated and subjected to migration assay with 10 μg/ml apoM^+HDL (10 nM S1P) or 10 μg/ml apoM^−HDL or 10 nM albumin-S1P. Data are mean±SD, n=3. * p<0.01. (D) Microscopy of HUVEC that were serum starved and stimulated with 100 μg/ml apoM^+HDL, apoM^−HDL, 100 nM albumin-S1P, r-apoM-S1P or 100 nM S1P-free r-apoM for 1 h. […] Scale bar, 20 μm. […]
General Methods. […] Numerical differences were analyzed with two-tailed Student's t test.
Migration Assays. […] The filter was scanned, and the color density of each well was quantified using ImageJ software. […]

The next experiment has as its system endogenous S1P1 receptor. Nature of the experiment: p44/42 and Akt activation in HUVEC (western blot, phospho-specific antibodies). It is filed as cell-based, human. Conditions: 1 μM VPC44116 pre-treatment 30 min. On the procedure: (§1) FIG. 4. ApoM-bound S1P activates S1P1-mediated intracellular signaling pathways and affects migration of HUVEC. (A) Confocal microscopy of HEK293 cells stably expressing S1P1-GFP. Cells were serum starved, stimulated for 1 h with indicated ligands, fixed and imaged. ApoM^+HDL (equivalent to ˜100 nM S1P as determined by LC/MS/MS) or ApoM^−HDL was used at 100 μg/ml. Fatty acid free BSA and r-apoM were complexed with S1P and used at the final concentration of 100 nM (equimolar for both protein and lipid). Scale bar, 20 μm. […] Activation of p44/42, and Akt was examined by western blot analysis using phospho-specific antibodies. (C) HUVEC were serum starved and pre-treated with 1 μM VPC44116 for 30 min where indicated and subjected to migration assay with 10 μg/ml apoM^+HDL (10 nM S1P) or 10 μg/ml apoM^−HDL or 10 nM albumin-S1P. Data are mean±SD, n=3. * p<0.01. (D) Microscopy of HUVEC that were serum starved and stimulated with 100 μg/ml apoM^+HDL, apoM^−HDL, 100 nM albumin-S1P, r-apoM-S1P or 100 nM S1P-free r-apoM for 1 h. […] Scale bar, 20 μm. HUVEC were serum starved and stimulated for 5 min with 30 nM albumin-S1P, r-apoM-S1P, 10 μg/mL ApoM+ HDL, or 30 nM S1P-free r-apoM (E) or with increasing concentrations of albumin or r-apoM-S1P (F). […]
(§2) General Methods. […] Numerical differences were analyzed with two-tailed Student's t test. […]

Experiment [3] deals with HUVEC. Nature of the experiment: adherens junction assembly assay (VE-cadherin immunostaining) in HUVEC. Type of experiment: cell-based, human. The note with it: HUVEC stimulated 1 h; HDL 100 μg/ml; S1P complexes or r-apoM 100 nM. As for the experimental part:
as §1, with “(F). Activation of p44/42 and Akt was examined by Western blot analysis using phospho-specific antibodies.” for “(F).”

The target of a further experiment is T3, S1P1 receptor (Homo sapiens, UniProt P21453).
T3 construct: expressed in transfected cells
T3 sequence (P21453 whole entry): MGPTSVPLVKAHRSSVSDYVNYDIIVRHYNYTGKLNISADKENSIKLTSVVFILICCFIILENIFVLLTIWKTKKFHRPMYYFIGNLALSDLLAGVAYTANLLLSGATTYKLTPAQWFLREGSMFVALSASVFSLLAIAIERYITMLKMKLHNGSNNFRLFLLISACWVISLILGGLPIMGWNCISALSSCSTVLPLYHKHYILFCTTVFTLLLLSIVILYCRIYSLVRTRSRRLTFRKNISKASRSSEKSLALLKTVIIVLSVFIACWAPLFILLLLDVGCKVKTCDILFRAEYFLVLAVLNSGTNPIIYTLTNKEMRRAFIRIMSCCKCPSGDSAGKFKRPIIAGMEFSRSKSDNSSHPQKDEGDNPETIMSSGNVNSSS
Nature of the experiment: S1P1 internalization in HEK293 cells stably expressing S1P1-GFP. It is filed as cell-based. The note with it: stimulated 1 h; HDL 100 μg/ml; S1P complexes 100 nM. As for the experimental part: as §1, §2

T1 sequence (O95445 whole entry): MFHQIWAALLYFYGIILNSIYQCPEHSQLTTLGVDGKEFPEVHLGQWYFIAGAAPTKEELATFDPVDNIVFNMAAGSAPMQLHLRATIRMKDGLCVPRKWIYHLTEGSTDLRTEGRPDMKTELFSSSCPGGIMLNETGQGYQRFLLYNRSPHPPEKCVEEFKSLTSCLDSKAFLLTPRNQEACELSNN

Regarding `CCCCCCCCCCCCC/C=C/[C@@H](O)[C@@H](N)COP(=O)(O)O` [S1P, Sphingosine-1-phosphate], the IC50 at recombinant human apoM is 900 nM. Moreover, the “quenching of intrinsic fluorescence of mouse r-apoM” value in experiment [1] is recorded as “quenches the intrinsic fluorescence”.
`CCCCCCCCc1cccc(NC(=O)[C@H](N)CCP(=O)(O)O)c1` [VPC44116]: in the experiment on HUVEC [2] (1 μM VPC44116 for 30 min, 10 μg/ml apoM+HDL), the “effect of S1P1 antagonist pre-treatment on apoM+HDL-stimulated chemotaxis” value is recorded as “abolished”. Besides, the “effect of S1P1 antagonist on apoM+HDL-induced p44/42 and Akt phosphorylation” value in the experiment on endogenous S1P1 receptor is listed as “essentially abolished”. Further, the “effect of S1P1 antagonist on cells stimulated by FCS” value in the experiment with endogenous S1P1 receptor (FCS stimulation) is recorded as “no inhibitory effects”.
Take “albumin-bound S1P: S1P complexed with equi-molar fatty acid free bovine serum albumin, used as a positive control [reference compound]”: in the experiment with HUVEC [3], the “adherens junction and F-actin formation” value was “well-spread, contained F-actin and formed adherens junctions”. The “internalization of GFP-S1P1 receptor” value in the experiment with S1P1 receptor was “robust internalization”. Besides, the “chemotaxis of HUVEC toward chemoattractant” value with HUVEC [2] (serum-starved HUVEC, 4 h at 37° C.) is reported as “worked as chemoattractants in a concentration-dependent manner”.
